Measured values reported in patent US20130281313A1, “PROGNOSTIC AND/OR PREDICTIVE BIOMARKERS AND BIOLOGICAL APPLICATIONS THEREOF” (INSTITUT GUSTAVE ROUSSY, priority 2010, published 2013).

Test system: A549 cells
Test: Genome-wide siRNA screen: residual proliferation (WST-1) of siRNA-transfected cells upon CDDP
Type: cell-based, human
Settings: 50 μM CDDP for 24 hours
Description: High-throughput operations were carried out by means of a Microlab STAR automated workstation (Hamilton, Reno, USA) placed under a class II safety cabinet. In all screening rounds, each siRNA was tested in triplicates that were distributed to three different plates. Prior to cell seeding, transfection complexes were individually prepared in a V-bottomed 96-well deep well plate. In brief, each siRNA (as retrieved from the Human Whole Genome siRNA Set Version 1.0) was dissolved in a total volume of 122.5 μL serum-free phenol-red free DMEM/F12 medium (final concentration=10 nM, conditions for 7 wells). Similarly, an appropriate amount of HiPerFect® transfection reagent (Qiagen) was diluted in serum-free phenol-red free DMEM/F12 medium (0.25 μL per well). […] After additional 24 h, the 3 plates that were not subjected to cell death induction were assessed for both plasma membrane breakdown and residual cell proliferation, while the 3 plates that were treated with cell death-inducing stimuli were monitored for residual proliferation only (see next section). […]
In the second round of screen (4 siRNAs×1,000 transcripts=4,000 siRNAs), the effects of individual siRNAs were analyzed and scored as described above. […]

In the case of N.N.[Cl][Pt][Cl] [CDDP, cis-diammineplatinum(II) dichloride], the cells killed is reported as ~45%.
